# Read-outs that look alike come from different tables or passages of the source.
# Assays:
# [1] = test system: Enterococcus faecalis ATCC 29212; test: Serial microplate dilution MIC, bacteria; format: cell-based; details: ATCC29212
# Experimental: (§1) The serial microplate dilution method developed by Eloff (1998) was used to determine the minimal inhibitory concentration (MIC) of the crude extracts, fractions and isolated compounds from P. obliquum against several bacterial strains. The antimicrobial activity was determined against the bacterial strains Escherichia coli ATTC 27853, Escherichia coli ATTC 6739, Enterococcus faecalis ATCC 29212, Pseudomonas aeruginosa ATCC 25922, Staphylococcus aureus ATCC 6538, Staphylococcus aureus ATCC 29213, Salmonella typhi ATCC 14028.
# [2] = test system: Staphylococcus aureus ATCC 6538; test: Serial microplate dilution MIC, bacteria; format: cell-based; details: ATCC6538
# Experimental: as §1
# [3] = test system: Pseudomonas aeruginosa ATCC 25922; test: Serial microplate dilution MIC, bacteria; format: cell-based; details: ATCC25922
# Experimental: as §1
# [4] = test system: Staphylococcus aureus ATCC 29213; test: Serial microplate dilution MIC, bacteria; format: cell-based; details: ATCC29213
# Experimental: as §1
# [5] = test system: Escherichia coli ATTC 27853; test: Serial microplate dilution MIC, bacteria; format: cell-based; details: ATTC27853
# Experimental: as §1
# [6] = test system: Escherichia coli ATTC 6739; test: Serial microplate dilution MIC, bacteria; format: cell-based; details: ATTC6739
# Experimental: as §1
# [7] = test system: Salmonella typhi ATCC 14028; test: Serial microplate dilution MIC, bacteria; format: cell-based; details: Salmonella enterica
# Experimental: as §1
# [8] = in vitro; details: mouse, LC50 (cytotoxicity)
# Text: (§5) The MTT assay was used to determine the cytotoxicity of dried acetone extracts of H. caffrum (leaves); P. obliquum (leaves); R. melanophloeos (leaves) and S. birrea (stem bark) reconstituted in dimethyl sulphoxide (DMSO) against Mouse fibroblast cells (obtained from the Department of Plant Science, Faculty of Natural and Agricultural Sciences, University of Pretoria, South Africa).
# (§6) MTT (yellow) is reduced into a formazan (purple) by viable cells. The colour intensity of the formazan produced, which is directly proportional to the number of viable cells, is measured using a spectrophotometer (Mosmann, 1983; Shai, 2007).
# (§7) Cells were maintained in minimal essential medium (MEM) (Highveld Biological, South Africa) supplemented with 0.1% gentamicin (Virbac) and 5% foetal calf serum (Adcock-lngram). […] Dried crude plant extracts (100 mg) were reconstituted in 1 ml of DMSO and serial 10-fold dilutions of each extract were prepared in growth medium. The growth medium on sub-confluent monolayer cells grown overnight in microtitre plates was removed and cells were exposed to 200 μl of the extracts at different concentrations and incubated again at 37° C. for 5 days. Viability of cells was determined using the tetrazolium-based colorimetric assay (MTT assay) described by Mossmann (1983). Before the addition of MTT, the extract-containing medium on the cells was replaced with fresh culture medium to exclude reduction of the tetrazolium compound by plant extracts. The assay is based on mitochondrial dehydrogenase activity which is assessed by the reductive cleavage of the tetrazolium salt MTT [3-(4.5-dimethylthiazolyl)2.5-diphenyltetrazolium bromide] due to the succinic dehydrogenase present in living cells to yield a purple formazan dye. The cells were incubated with 30 μl of 5 mg/ml MTT in phosphate-buffered saline (PBS) for four hours. Thereafter, medium was removed and cells washed with PBS. DMSO (50 μl) was added to the cells and absorbance was measured using a Versamax microplate reader at 570 nm. Berberine chloride (Sigma) was used as a positive control, wells containing only cells acted as the negative control and a solvent control was also included. The percentage cell viability following the addition of varying concentrations of the extracts in relation to controls was calculated. The LC50 values were calculated (using SoftMax Pro4.8 Software) as the concentration of plant extracts resulting in 50 percent reduction of absorbance compared to untreated cells. Tests were carried out in quadruplicate and each experiment was repeated three times.
# [9] = test system: Mycobacterium bovis; test: microbe, parasite or virus in culture; format: cell-based
# [10] = test system: bacterial strains (E. coli, E. faecalis, P. aeruginosa, S. aureus, S. typhi); test: Antibacterial MIC, summary statements over all bacterial strains tested; format: cell-based; details: read-out: MIC (bacteria tested, summary)
# Experimental: as §1
# [11] = test system: Haemonchus contortus (egg); test: Egg hatch assay (EHA); format: cell-based; details: egg of Haemonchus contortus; read-out: Antihelminthic activity EC50 (mg/ml) EDA
# Experimental: (§2) The extract and isolated compound were tested for activity on Haemonchus contortus.
# [12] = test system: Mycobacterium smegmatis; test: Serial microplate dilution MIC, mycobacteria; format: cell-based
# [13] = test system: mouse fibroblast cells; details: 5 days
# Text: as §5, §6, §7
# [14] = test system: Mycobacterium fortuitum; test: Serial microplate dilution MIC, mycobacteria; format: cell-based
# [15] = test system: Candida albicans standard strain (ATCC 10231) and clinical isolates; test: Broth micro-dilution assay, minimal inhibitory concentration (MIC); format: cell-based; details: for MIC: Candida albicans, read-out: MIC; for Selectivity index (SI): LC50 against mouse fibroblast cells/MIC
# [16] = test system: Mycobacterium aurum; test: Serial microplate dilution MIC, mycobacteria; format: cell-based; details: Mycolicibacterium aurum
# [17] = in vitro
# [18] = test system: Penicillium italicum; test: MIC, plant pathogenic fungi; format: cell-based
# Experimental: (§3) The microplate dilution method (Eloff, 1998), with slight modification (Masoko et al., 2005) was used to test the antifungal activity of the crude extracts, fractions and isolated compounds from P. obliquum. Clinical isolates of the four opportunistic fungal strains Aspergillus fumigatus, Candida albicans, Crytococcus neoformans and Candida albicans ATCC 10231 were used to test for antifungal activity.
# (§4) The antifungal activity of the crude extracts and the five fractions were also tested against 10 plant pathogenic fungi (Aspergillus niger, Aspergillus parasiticus, Colletotrichum gloeosporioides, Fusarium oxysporum, Penicillium digitum, Penicillium expansum, Penicillium italicum, Penicillium janthinellum, Trichoderma harzianum and Rhizoctonia solani).
# [19] = test system: Penicillium digitum; test: MIC, plant pathogenic fungi; format: cell-based
# Experimental: as §3, §4
# [20] = test system: Trichoderma harzianum; test: MIC, plant pathogenic fungi; format: cell-based
# Experimental: as §3, §4
# [21] = test system: Aspergillus niger; test: MIC, plant pathogenic fungi; format: cell-based
# Experimental: as §3, §4
# [22] = test system: Penicillium janthinellum; test: MIC, plant pathogenic fungi; format: cell-based
# Experimental: as §3, §4
# [23] = test system: Penicillium expansum; test: MIC, plant pathogenic fungi; format: cell-based
# Experimental: as §3, §4
# [24] = test system: Fusarium oxysporum; test: MIC, plant pathogenic fungi; format: cell-based
# Experimental: as §3, §4
# [25] = test system: Rhizoctonia solani; test: MIC, plant pathogenic fungi; format: cell-based
# Experimental: as §3, §4
# [26] = test system: Colletotrichum gloeosporioides; test: MIC, plant pathogenic fungi; format: cell-based
# Experimental: as §3, §4
# [27] = test system: Aspergillus parasiticus; test: MIC, plant pathogenic fungi; format: cell-based
# Experimental: as §3, §4
# [28] = test system: Candida albicans ATCC 10231; test: Microplate dilution MIC, opportunistic fungi (Example 9); format: cell-based; details: ATCC10231
# Text: as §3
# [29] = test system: Cryptococcus neoformans; test: as above; format: cell-based
# Text: as §3
# [30] = test system: Candida albicans (clinical isolate); test: as above; format: cell-based
# Text: as §3
# [31] = test system: Aspergillus fumigatus; test: as above; format: cell-based
# Text: as §3
# [32] = test system: Haemonchus contortus (larva); test: Larval development test (LDT); format: cell-based
# Experimental: as §2
# [33] = in vitro; details: human
structure (smiles),measurement,setting,value
"CC(=O)OCC1=CCc2c(cc(O)c3c(=O)cc(C)oc23)OC1 [Compound 2, 8,11-Dihydro-5-hydroxy-12-hydroxymethyl-2-methyl-4H-pyrano[2,3-g][1]benzoxepin-4-one 12-O-acetate]",MIC,[1],> 250 µg/mL
same,MIC,[2],31.5 µg/mL
same,MIC,[3],31.5 µg/mL
same,MIC,[4],31.5 µg/mL
same,MIC,[5],80 µg/mL
same,MIC,[6],80 µg/mL
same,MIC,[7],31.5 µg/mL
same,CC50 at 5 days,[8],7.23 µg/mL
same,MIC,[9]; Mycobacterium bovis,31.5 µg/mL
same,MIC,[9]; Mycobacterium tuberculosis variant bovis,31.5 µg/mL
same,MIC,[10],31.5 µg/mL
same,EC50,[11],0.224 ± 0.0286 mg/mL
same,MIC,[12]; Mycobacterium smegmatis,16 µg/mL
same,MIC,"[12]; Mycolicibacterium smegmatis, M. smegmatis, read-out: MIC",16 µg/mL
same,LC50 (cytotoxicity),[13],7.23 µg/mL
same,MIC,[14]; Mycobacterium fortuitum,8 µg/mL
same,MIC,"[14]; Mycolicibacterium fortuitum, M. fortuitum, read-out: MIC",8 µg/mL
same,MIC,"[15]; 12 h, 12 h incubation, C. albicans 1051255",> 250 µg/mL
same,MIC,"[15]; 12 h, 12 h incubation, C. albicans 1051604",> 250 µg/mL
same,MIC,"[15]; 12 h, 12 h incubation, C. albicans 1051608",8 µg/mL
same,MIC,"[15]; 12 h, 12 h incubation, C. albicans ATCC 10231",4 µg/mL
same,MIC,"[15]; 12 h, 12 h incubation, C. albicans M0824",> 250 µg/mL
same,MIC,"[15]; 12 h, 12 h incubation, C. albicans M0825",> 250 µg/mL
same,MIC,"[15]; 12 h, 12 h incubation, C. albicans M0826",> 250 µg/mL
same,MIC,"[15]; 24 h, 24 h incubation, C. albicans 1051255",> 250 µg/mL
same,MIC,"[15]; 24 h, 24 h incubation, C. albicans 1051604",> 250 µg/mL
same,MIC,"[15]; 24 h, 24 h incubation, C. albicans 1051608",250 µg/mL
same,MIC,"[15]; 24 h, 24 h incubation, C. albicans ATCC 10231",4 µg/mL
same,MIC,"[15]; 24 h, 24 h incubation, C. albicans M0824",> 250 µg/mL
same,MIC,"[15]; 24 h, 24 h incubation, C. albicans M0825",> 250 µg/mL
same,MIC,"[15]; 24 h, 24 h incubation, C. albicans M0826",> 250 µg/mL
same,MIC,"[15]; C. albicans ATCC 10231, mean value",4 µg/mL
same,Selectivity index (SI),[15]; C. albicans 1051255,<0.029
same,Selectivity index (SI),[15]; C. albicans 1051604,<0.029
same,Selectivity index (SI),[15]; C. albicans 1051608,0.029
same,Selectivity index (SI),[15]; C. albicans ATCC 10231,1.808
same,Selectivity index (SI),[15]; C. albicans M0824,<0.029
same,Selectivity index (SI),[15]; C. albicans M0825,<0.029
same,Selectivity index (SI),[15]; C. albicans M0826,<0.029
same,Selectivity index (SI) Average,[15]; average over ATCC 10231 and clinical isolates,0.283
same,MIC,[16],125 µg/mL
same,CC50,[17]; monkey and human,> 200 µg/mL
same,MIC,[18],125 µg/mL
same,MIC,[19],32 µg/mL
same,MIC,[20],16 µg/mL
same,MIC,"[20]; T. harzianum, read-out: MIC",16 µg/mL
same,MIC,[21],32 µg/mL
same,MIC,[22],63 µg/mL
same,MIC,[23],32 µg/mL
same,MIC,[24],63 µg/mL
same,MIC,[25],8 µg/mL
same,MIC,"[25]; R. solani, read-out: MIC",8 µg/mL
same,MIC,[26],32 µg/mL
same,MIC,[27],250 µg/mL
same,MIC,[28],2 µg/mL
same,MIC,[29],8 µg/mL
same,MIC,[30],62.5 µg/mL
same,MIC,[31],16 µg/mL
same,EC50,"[32]; Haemonchus contortus larvae, read-out: EC50 against larvae",0.0956 mg/mL
same,EC50,"[32]; larva of Haemonchus contortus, read-out: Antihelminthic activity EC50 (mg/ml) LDT",0.0956 ± 0.002 mg/mL
"COc1cccc2c1C(=O)c1c(O)c3c(c(O)c1C2=O)C[C@@](O)(C(=O)CO)C[C@@H]3O[C@H]1C[C@H](N)[C@H](O)[C@H](C)O1 [doxorubicin, reference compound]",CC50,[33],116 ± 17.4 nM
same,CC50,[17]; monkey,2510 ± 203 nM

# — patent US9682114B2, “Plant extracts of Ptaeroxylon obliquum nand compounds having antimicrobial and antihelminthic activity” (UNIVERSITY OF PRETORIA, priority 2013, dated 2017)
